Measured values taken from PubChem BioAssay (NCI).
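Values below derive from 48-hour exposures of cells grown in 96-well plates, with endpoints linearly interpolated between the two concentrations bracketing the appropriate inhibition level. TGI is the concentration that stops growth completely.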

How the values were obtained:
Experiment in all cases: NCI-60 cell line screen, 48 h
UACC-62 melanoma = tested on: UACC-62 melanoma
K-562 leukemia = tested on: K-562 leukemia
LOX IMVI melanoma = tested on: LOX IMVI melanoma
RPMI-8226 leukemia = tested on: RPMI-8226 leukemia
BT-549 breast = tested on: BT-549 breast
OVCAR-3 ovarian = tested on: OVCAR-3 ovarian
CAKI-1 renal = tested on: CAKI-1 renal
UO-31 renal = tested on: UO-31 renal
MDA-MB-231 breast = tested on: MDA-MB-231 breast
HCC-2998 colon = tested on: HCC-2998 colon
SK-MEL-5 melanoma = tested on: SK-MEL-5 melanoma
HL-60(TB) leukemia = tested on: HL-60(TB) leukemia
HCT-15 colon = tested on: HCT-15 colon
NCI-H522 lung = tested on: NCI-H522 lung
U251 CNS = tested on: U251 CNS
SF-295 CNS = tested on: SF-295 CNS
HT29 colon = tested on: HT29 colon
HOP-92 NSCLC = tested on: HOP-92 NSCLC
IGROV1 ovarian = tested on: IGROV1 ovarian
786-0 renal = tested on: 786-0 renal
UACC-257 melanoma = tested on: UACC-257 melanoma
HS 578T breast = tested on: HS 578T breast
SK-OV-3 ovarian = tested on: SK-OV-3 ovarian
COLO 205 colon = tested on: COLO 205 colon
OVCAR-5 ovarian = tested on: OVCAR-5 ovarian
TK-10 renal = tested on: TK-10 renal
SN12C renal = tested on: SN12C renal
MCF7 breast = tested on: MCF7 breast
DU-145 prostate = tested on: DU-145 prostate
CCRF-CEM leukemia = tested on: CCRF-CEM leukemia
SF-539 CNS = tested on: SF-539 CNS
SNB-19 CNS = tested on: SNB-19 CNS
T-47D breast = tested on: T-47D breast
PC-3 prostate = tested on: PC-3 prostate
NCI-H460 lung = tested on: NCI-H460 lung
A549 NSCLC = tested on: A549 NSCLC
OVCAR-4 ovarian = tested on: OVCAR-4 ovarian
HOP-62 NSCLC = tested on: HOP-62 NSCLC
EKVX NSCLC = tested on: EKVX NSCLC
NCI/ADR-RES ovarian = tested on: NCI/ADR-RES ovarian
MOLT-4 leukemia = tested on: MOLT-4 leukemia
RXF 393 renal = tested on: RXF 393 renal
SW-620 colon = tested on: SW-620 colon
OVCAR-8 ovarian = tested on: OVCAR-8 ovarian
SF-268 CNS = tested on: SF-268 CNS
SK-MEL-28 melanoma = tested on: SK-MEL-28 melanoma
SNB-75 CNS = tested on: SNB-75 CNS
MDA-N = tested on: MDA-N
MDA-MB-435 = tested on: MDA-MB-435
M14 melanoma = tested on: M14 melanoma
MALME-3M melanoma = tested on: MALME-3M melanoma
A498 renal = tested on: A498 renal
SK-MEL-2 melanoma = tested on: SK-MEL-2 melanoma
ACHN renal = tested on: ACHN renal
KM12 colon = tested on: KM12 colon
NCI-H23 lung = tested on: NCI-H23 lung
HCT-116 colon = tested on: HCT-116 colon
SR leukemia = tested on: SR leukemia
NCI-H226 lung = tested on: NCI-H226 lung

Structure (SMILES): Nc1ncnc2c1ccn2C/C=C\CO
- TGI (UACC-62 melanoma): > 100 µM
- TGI (K-562 leukemia): > 100 µM
- TGI (LOX IMVI melanoma): > 100 µM
- TGI (RPMI-8226 leukemia): > 100 µM
- TGI (BT-549 breast): > 100 µM
- TGI (OVCAR-3 ovarian): > 100 µM
- TGI (CAKI-1 renal): > 100 µM
- TGI (UO-31 renal): > 100 µM
- TGI (MDA-MB-231 breast): > 100 µM
- TGI (HCC-2998 colon): > 100 µM
- TGI (SK-MEL-5 melanoma): > 100 µM
- TGI (HL-60(TB) leukemia): > 100 µM
- TGI (HCT-15 colon): > 100 µM
- TGI (NCI-H522 lung): > 100 µM
- TGI (U251 CNS): > 100 µM
- TGI (SF-295 CNS): > 100 µM
- TGI (HT29 colon): > 100 µM
- TGI (HOP-92 NSCLC): > 100 µM
- TGI (IGROV1 ovarian): > 100 µM
- TGI (786-0 renal): > 100 µM
- TGI (UACC-257 melanoma): > 100 µM
- TGI (HS 578T breast): > 100 µM
- TGI (SK-OV-3 ovarian): > 100 µM
- TGI (COLO 205 colon): > 100 µM
- TGI (OVCAR-5 ovarian): > 100 µM
- TGI (TK-10 renal): > 100 µM
- TGI (SN12C renal): > 100 µM
- TGI (MCF7 breast): > 100 µM
- TGI (DU-145 prostate): > 100 µM
- TGI (CCRF-CEM leukemia): > 100 µM
- TGI (SF-539 CNS): > 100 µM
- TGI (SNB-19 CNS): > 100 µM
- TGI (T-47D breast): > 100 µM
- TGI (PC-3 prostate): > 100 µM
- TGI (NCI-H460 lung): > 100 µM
- TGI (A549 NSCLC): > 100 µM
- TGI (OVCAR-4 ovarian): > 100 µM
- TGI (HOP-62 NSCLC): > 100 µM
- TGI (EKVX NSCLC): > 100 µM
- TGI (NCI/ADR-RES ovarian): > 100 µM
- TGI (MOLT-4 leukemia): > 100 µM
- TGI (RXF 393 renal): > 100 µM
- TGI (SW-620 colon): > 100 µM
- TGI (OVCAR-8 ovarian): > 100 µM
- TGI (SF-268 CNS): > 100 µM
- TGI (SK-MEL-28 melanoma): > 100 µM
- TGI (SNB-75 CNS): > 100 µM
- TGI (MDA-N): > 100 µM
- TGI (MDA-MB-435): > 100 µM
- TGI (M14 melanoma): > 100 µM
- TGI (MALME-3M melanoma): > 100 µM
- TGI (A498 renal): > 100 µM
- TGI (SK-MEL-2 melanoma): > 100 µM
- TGI (ACHN renal): > 100 µM
- TGI (KM12 colon): > 100 µM
- TGI (NCI-H23 lung): > 100 µM
- TGI (HCT-116 colon): > 100 µM

Structure (SMILES): O=C(NCC(=O)N1CCCC1C(=O)OC(=O)C1CCCN1C(=O)CNC(=O)OCc1ccccc1)OCc1ccccc1 (stereo not given)
- TGI (UACC-62 melanoma): 34.6 µM
- TGI (K-562 leukemia): 72.8 µM
- TGI (LOX IMVI melanoma): 36.2 µM
- TGI (RPMI-8226 leukemia): 70.2 µM
- TGI (SR leukemia): > 100 µM
- TGI (OVCAR-3 ovarian): > 100 µM
- TGI (CAKI-1 renal): > 100 µM
- TGI (UO-31 renal): > 100 µM
- TGI (MDA-MB-231 breast): 54.7 µM
- TGI (HCC-2998 colon): > 100 µM
- TGI (SK-MEL-5 melanoma): 62.3 µM
- TGI (HL-60(TB) leukemia): 70.3 µM
- TGI (HCT-15 colon): > 100 µM
- TGI (NCI-H522 lung): > 100 µM
- TGI (U251 CNS): > 100 µM
- TGI (SF-295 CNS): 47.8 µM
- TGI (HT29 colon): 79.2 µM
- TGI (HOP-92 NSCLC): > 100 µM
- TGI (IGROV1 ovarian): > 100 µM
- TGI (786-0 renal): > 100 µM
- TGI (UACC-257 melanoma): 52.1 µM
- TGI (NCI-H226 lung): 66.2 µM
- TGI (HS 578T breast): > 100 µM
- TGI (SK-OV-3 ovarian): > 100 µM
- TGI (COLO 205 colon): 33.9 µM
- TGI (OVCAR-5 ovarian): 90.1 µM
- TGI (TK-10 renal): 49.7 µM
- TGI (SN12C renal): > 100 µM
- TGI (MCF7 breast): 60 µM
- TGI (DU-145 prostate): > 100 µM
- TGI (CCRF-CEM leukemia): > 100 µM
- TGI (SF-539 CNS): 40.6 µM
- TGI (SNB-19 CNS): > 100 µM
- TGI (T-47D breast): > 100 µM
- TGI (PC-3 prostate): > 100 µM
- TGI (NCI-H460 lung): > 100 µM
- TGI (A549 NSCLC): > 100 µM
- TGI (OVCAR-4 ovarian): > 100 µM
- TGI (HOP-62 NSCLC): 77 µM
- TGI (EKVX NSCLC): > 100 µM
- TGI (NCI/ADR-RES ovarian): > 100 µM
- TGI (MOLT-4 leukemia): 67.1 µM
- TGI (RXF 393 renal): 64.5 µM
- TGI (SW-620 colon): > 100 µM
- TGI (OVCAR-8 ovarian): > 100 µM
- TGI (SF-268 CNS): 89 µM
- TGI (SK-MEL-28 melanoma): 70.4 µM
- TGI (SNB-75 CNS): 57.2 µM
- TGI (MDA-N): > 100 µM
- TGI (MDA-MB-435): 68.3 µM
- TGI (M14 melanoma): 45.7 µM
- TGI (MALME-3M melanoma): 64.8 µM
- TGI (A498 renal): > 100 µM
- TGI (SK-MEL-2 melanoma): 44.8 µM
- TGI (ACHN renal): > 100 µM
- TGI (KM12 colon): > 100 µM
- TGI (NCI-H23 lung): > 100 µM
- TGI (HCT-116 colon): > 100 µM
